Measured values published in the supplement of paper PMC4862054.

Assays:
BT-474 = settings: 72 h
Procedure, shortened: (§1)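 Per-plate normalisation used 0.1 % DMSO and a positive kill control. Breast cancer cell lines (20 µl suspension) were seeded into 384-well plates containing compound at 5 concentrations in 10-fold steps across a compound-specific 10,000-fold range, incubated for 72 h, and read first for CellTox Green fluorescence (485/520 nm), then for CellTiter-Glo luminescence. EC50 was fitted from the dose-response curves and censored at the top concentration.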

CAL-148 [1] = settings: 72 h
Procedure, shortened: as §1

CAL-85-1 = settings: 72 h
Procedure, shortened: as §1

HCC1937 = settings: 72 h
Procedure, shortened: as §1

HDQ-P1 [2] = settings: 72 h
Procedure, shortened: as §1

MCF-10A = settings: 72 h
Procedure, shortened: as §1

MDA-MB-231 = settings: 72 h
Procedure, shortened: as §1

MDA-MB-436 = settings: 72 h
Procedure, shortened: as §1

MDA-MB-453 = settings: 72 h
Procedure, shortened: as §1

MFM-223 [3] = settings: 72 h
Procedure, shortened: as §1

SK-BR-3 = settings: 72 h
Procedure, shortened: as §1

CAL-148 [4] = experiment: drug sensitivity score (DSS), CellTox Green (DSS (AUC-based score)); higher = stronger drug effect (viability inhibition or cytotoxicity); extreme values may be limits of the assay; settings: incubation time: 72 h
Procedure, shortened: (§2)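 Breast cancer cell lines, seeded as 20 µl suspension, were incubated 72 h with compound in 384-well plates at 5 concentrations in 10-fold steps over a 10,000-fold range set for each compound. Fluorescence from CellTox Green was read at 485/520 nm before CellTiter-Glo luminescence, which was read after 10 min at room temperature. Every plate was normalised to 0.1 % DMSO and a positive kill control, and the drug sensitivity score was taken from the area under the fitted dose-response curve.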

HCC1143 [5] = experiment: as above; settings: incubation time: 72 h
Procedure, shortened: as §2

HDQ-P1 [6] = experiment: as above; settings: incubation time: 72 h
Procedure, shortened: as §2

MFM-223 [7] = experiment: as above; settings: incubation time: 72 h
Procedure, shortened: as §2

BT-549 = settings: 72 h
Procedure, shortened: as §1

CAL-51 = settings: 72 h
Procedure, shortened: as §1

HCC1599 = settings: 72 h
Procedure, shortened: as §1

CAL-120 = settings: 72 h
Procedure, shortened: as §1

DU-4475 = settings: 72 h
Procedure, shortened: as §1

HCC1143 [8] = settings: 72 h
Procedure, shortened: as §1

Hs578T = settings: 72 h
Procedure, shortened: as §1

SMILES | EC50, CellTiter-Glo (BT-474) [µM] | EC50, CellTiter-Glo (CAL-148 [1]) [µM] | EC50, CellTiter-Glo (CAL-85-1) [µM] | EC50, CellTiter-Glo (HCC1937) [µM] | EC50, CellTiter-Glo (HDQ-P1 [2]) [µM] | EC50, CellTiter-Glo (MCF-10A) [µM] | EC50, CellTiter-Glo (MDA-MB-231) [µM] | EC50, CellTiter-Glo (MDA-MB-436) [µM] | EC50, CellTiter-Glo (MDA-MB-453) [µM] | EC50, CellTiter-Glo (MFM-223 [3]) [µM] | EC50, CellTiter-Glo (SK-BR-3) [µM] | drug sensitivity score (CAL-148 [4]) | drug sensitivity score (HCC1143 [5]) | drug sensitivity score (HDQ-P1 [6]) | drug sensitivity score (MFM-223 [7]) | EC50, CellTiter-Glo (BT-549) [µM] | EC50, CellTiter-Glo (CAL-51) [µM] | EC50, CellTiter-Glo (HCC1599) [µM] | EC50, CellTiter-Glo (CAL-120) [µM] | EC50, CellTiter-Glo (DU-4475) [µM] | EC50, CellTiter-Glo (HCC1143 [8]) [µM] | EC50, CellTiter-Glo (Hs578T) [µM]
COc1cc2c(NC3CCN(C(C)C)CC3)nc(N3CCC(F)(F)CC3)nc2cc1OCCCN1CCCC1 [UNC0642] | 7.62 | 5.46 | 2.99 | > 10 | 9.83 | 6.61 | 4.72 | 4.1 | 3.15 | 5.79 | 6.17 | 2.77 | 0 | 0 | 0 |  |  |  |  |  |  | 
Cc1ccc(NC(=O)c2ccc(CN3CCN(C)CC3)cc2)cc1Nc1nc(-c2cccnc2)cs1 [Masitinib] | 7.58 |  |  | > 10 | 4.91 |  | > 10 |  | 1.62 | > 10 | 7.39 | 0 | 0 | 0 | 0 | 1.88 | 5.46 | 9.36 |  |  |  | 
CCOC(=O)CCNc1cc(N2CCc3ccccc3CC2)nc(-c2ccccn2)n1 [GSK-J4] | 9.14 | 3.44 | 5.18 | 8.34 | 11.7 | 9.27 | 6.15 | 4.33 | 2.96 | 7.94 | 11.6 | 10.9 | 18.6 | 11.6 | 8.73 | 1 | 1.34 | 9.37 | 12.1 | 7.17 | 8.69 | 12.2
O=P1(N(CCCl)CCCl)NCCCO1 (stereo not drawn) [Cyclophosphamide] |  |  |  |  |  |  |  |  |  |  |  | 0 | 0 | 0 | 0 |  |  |  |  |  |  | 
COc1cc2ncnc(Nc3ccc(F)c(Cl)c3)c2cc1OCCCN1CCOCC1 [Gefitinib] |  | 0.788 | 0.714 | > 10 |  | 0.0842 |  |  |  |  |  | 2.34 | 0 | 0 | 0 |  |  |  |  |  |  | 
CO[C@H]1C[C@@H]2CC[C@@H](C)[C@@](O)(O2)C(=O)C(=O)N2CCCC[C@H]2C(=O)O[C@H]([C@H](C)C[C@@H]2CC[C@@H](OP(C)(C)=O)[C@H](OC)C2)CC(=O)[C@H](C)/C=C(\C)[C@@H](O)[C@@H](OC)C(=O)[C@H](C)C[C@H](C)/C=C/C=C/C=C/1C [Ridaforolimus] |  | 0.00227 | 0.00057 | 0.00046 | 0.00662 |  |  | 0.00103 | 0.00122 | 0.00098 | 0.00078 | 0 | 0 | 12.6 | 0 | 0.00044 | 0.00161 |  | 0.0009 | 0.00224 | 0.00091 | 0.00042
COc1cc(O)c2c(c1)/C=C/C[C@H](O)[C@H](O)C(=O)/C=C\C[C@H](C)OC2=O [(5Z)-7-Oxozeaenol] | 2.16 | 1.47 | 0.605 | 4.06 | 2.33 | 0.532 | 1.43 | 1.56 | 8.35 | 2.17 | 6.39 | 16.9 | 0 | 0 | 8.77 | 0.548 | 3.77 | 5.83 | 2.45 | 0.173 | 7.82 | 3.25
